Key:
[1] = target: T1, M-current (Rattus norvegicus, UniProt O88943+O88944); assay: Blockade of native M-current in SCG neurons (voltage clamp, intact ganglia); format: cell-based; details: native M-current, SCG neurons; mean±s.e.m.
T1 construct: from tissue
Description: Method: Recordings of the M-current in sympathetic neurons in intact ganglia were performed at room temperature as described previously (Wang and McKinnon, 1995). The standard extracellular recording solution was: NaCl (133 mM, KCl (4.7 mM), NaH2PO4 (1.3 mM), NaHCO3 (16.3 mM), CaCl2 (2 mM), MgCl2 (1.2 mM) and glucose (1.4 g/liter), bubbled with 95% O2-5% CO2 to give pH 7.2-7.4.
A. Blockade of M-current in SCG neurons by XE991. Holding potential was −30 mV and step potential was −50 mV for 1 second. The shift in holding current following drug application is due to the inhibition of M-current activated at the holding potential.
Maximal block of native M-current was 93±2%. Data points are averages and error bars represent s.e.m.

[2] = target: KCNQ2 (Homo sapiens, UniProt O43526, DEL417-446); assay: Perforated-patch voltage clamp of HEK 293E cells stably expressing hKCNQ2; format: cell-based; set-up: Full-length hKCNQ2 cDNAs were amplified from adult human brain cDNA; expressed in transfected cells; host or cells: 293 EBNA (HEK 293E) cells, episomal plasmid pm3AR-hKCNQ2-1, hygromycin B selection; details: FIG. 5 (0.3 uM)
Description: To determine whether the hygromycin B resistant HEK 293E cells express functional hKCNQ2 channels, the presence of potassium currents was evaluated using the perforated-patch voltage-clamp technique. Briefly, cells growing on plastic Petri dishes or poly-D-lysine-coated glass coverslips in DMEM (with 10% FBS and 250 ug/ml hygromycin B) at 37° C. and 5% CO2 were removed from the incubator and allowed to reach room temperature. Growth medium was replaced with a bathing solution containing, in mM: 140 NaCl, 3 KC1, 2.5 CaCl2, 1 MgCl2, 10 HEPES, 10 dextrose, pH adjusted to 7.2-7.4 with NaOH and osmolarity adjusted to 305-310 mosm with water. […]
Stock solution(s) of test compound(s) was (were) prepared immediately before use. […] Generally, the stock solution is about 0.1 mM to about 100 mM in DMSO and the aliquot is about 5 to about 100 uL, but it is understood that the concentration and volumes are not limited to these ranges for one skilled in the art can readily determine the appropriate concentrations and volumes dependening on the activity of the compound in the assay and the sensitivity of detection. […]

[3] = mammalian CNS; cited from earlier work

SMILES	IC50 [1] [nM]	Block of hKCNQ2 current [2]	K+-stimulated release of acetylcholine, dopamine and glutamate [3]
O=C1c2ccccc2C(Cc2ccncc2)(Cc2ccncc2)c2ccccc21 [XE991, 10,10-bis(4-pyridinylmethyl)-9(10H)-anthracenone]	980 ± 150	reversibly blocks hKCNQ2	–
O=C1N(c2ccccc2)c2ccccc2C1(Cc1ccncc1)Cc1ccncc1 [Linopirdine, 3,3-bis(4-pyridinylmethyl)-1-phenylindolin-2-one]	–	–	enhance K^+-stimulated release of acetylcholine, dopamine and glutamate
